US4345069A, “Deformyltylosin derivatives” (Toyo Jozo Kabushiki Kaisha, priority 1979, dated 1982)
≈ marks a conversion by molar mass, not a printed value. Where two headings read alike, the source gives them in different places.

What was measured:
Assay in all cases: Minimum inhibitory concentration
Type in all cases: cell-based
[1] = test system: Staphylococcus aureus ATCC 6538p; details: ATCC6538P
[2] = test system: Staphylococcus aureus MS353 C36; details: MS353C36, read-out: Minimum Inhibitory Concentration
Description: (§1) Minimum Inhibitory Concentration (μg/ml)
*erythromycin resistant strain

[3] = test system: Streptococcus pyogenes N.Y.5
[4] = test system: Staphylococcus aureus 0126
Description: as §1
**erythromycin and oreandomycin resistant strain.

[5] = test system: Staphylococcus aureus MS353
[6] = Staphylococcus aureus 0126, erythromycin and oreandomycin resistant strain, read-out: Minimum Inhibitory Concentration
[7] = Staphylococcus aureus, 0126, read-out: Minimum Inhibitory Concentration

Structure (SMILES)	MIC [1] [µg/mL]	MIC [2] [µg/mL]	MIC [3] [µg/mL]	MIC [4, 6] [µg/mL]	MIC [5] [µg/mL]	MIC [4, 7] [µg/mL]
CCC1OC(=O)C=CC(C)C(OC2OC(C)C(O)C(N(C)C)C2O)C(C)CC(C)C(=O)C=CC(C)=CC1COC1OC(C)C(O)C(OC)C1OC (stereo not drawn) [19-deformyl-2,3-didehydro-3-dehydroxy-4'-demycarosyltylosin]	0.2 (≈ 0.276 µM)	0.4 (≈ 0.551 µM)	0.2 (≈ 0.276 µM)	1.6 (≈ 2.2 µM)	0.2 (≈ 0.276 µM)	
CCC1OC(=O)CC(OC(=O)Cc2ccccc2)C(C)C(OC2OC(C)C(O)C(N(C)C)C2O)C(C)CC(C)C(=O)C=CC(C)=CC1COC1OC(C)C(O)C(OC)C1OC (stereo not drawn) [19-deformyl-4'-demycarosyl-3-phenylacetyltylosin]	0.2 (≈ 0.232 µM)	0.1 (≈ 0.116 µM)	≤ 0.05		0.2 (≈ 0.232 µM)	0.4 (≈ 0.464 µM)
CCC1OC(=O)CC(O)C(C)C(OC2OC(C)C(O)C(N(C)C)C2O)C(C)CC(C)C(=O)C=CC(C)=CC1COC1OC(C)C(O)C(OC)C1OC (stereo not drawn) [19-deformyl-4'-demycarosyltylosin]	0.2 (≈ 0.269 µM)	0.2 (≈ 0.269 µM)	0.1 (≈ 0.134 µM)	0.8 (≈ 1.08 µM)	0.2 (≈ 0.269 µM)	
CCC1OC(=O)CC(O)C(C)C(OC2OC(C)C(OC3CC(C)(O)C(O)C(C)O3)C(N(C)C)C2O)C(C)CC(C)C(=O)C=CC(C)=CC1COC1OC(C)C(O)C(OC)C1OC (stereo not drawn) [19-deformyltylosin]	1.6 (≈ 1.8 µM)	0.8 (≈ 0.901 µM)	1.6 (≈ 1.8 µM)		1.6 (≈ 1.8 µM)	
CCC1CC(C)C(=O)C=CC(C)=CC(COC2OC(C)C(O)C(OC)C2OC)C(CC)OC(=O)CC(O)C(C)C1OC1OC(C)C(O)C(N(C)C)C1O (stereo not drawn) [20-deoxo-4'-demycarosyltylosin]	0.2 (≈ 0.264 µM)	0.1 (≈ 0.132 µM)	0.2 (≈ 0.264 µM)		0.2 (≈ 0.264 µM)	
CC[C@H]1OC(=O)[C@H](C)[C@@H](O[C@H]2C[C@@](C)(OC)[C@@H](O)[C@H](C)O2)[C@H](C)[C@@H](O[C@@H]2O[C@H](C)C[C@H](N(C)C)[C@H]2O)[C@](C)(O)C[C@@H](C)C(=O)[C@H](C)[C@@H](O)[C@]1(C)O [erythromycin, reference compound]	0.2 (≈ 0.273 µM)	> 100	≤ 0.05		0.2 (≈ 0.273 µM)	> 100
CC[C@H]1OC(=O)C[C@@H](O)[C@H](C)[C@@H](O[C@@H]2O[C@H](C)[C@@H](O[C@H]3C[C@@](C)(O)[C@@H](O)[C@H](C)O3)[C@H](N(C)C)[C@H]2O)[C@@H](CC=O)C[C@@H](C)C(=O)/C=C/C(C)=C/[C@@H]1CO[C@@H]1O[C@H](C)[C@@H](O)[C@@H](OC)[C@H]1OC [tylosin]	1.6 (≈ 1.75 µM)	1.6 (≈ 1.75 µM)	0.4 (≈ 0.437 µM)		3.1 (≈ 3.38 µM)	1.6 (≈ 1.75 µM)
